Test results reported in ChEMBL document CHEMBL3822442, “Synthesis and Pharmacological Characterization of Novel Glucagon-like Peptide-2 (GLP-2) Analogues with Low Systemic Clearance” (J Med Chem, 2016).
The source made the active and inactive calls. The calls are words filed in the database; no cut-off is given here. Non-standard residues stand in square brackets, D forms with d. Residues, ends and D or L forms follow the SMILES beside them. ξ: configuration not given here. ξNle = CCCCC(N)C(=O)O

Tests used:
[1] = test system: HEK293; test: Selectivity ratio of EC50 for human GLP1R expressed in HEK293 cells to EC50 for human GLP2R expressed in HEK293; type: cell-based
[2] = target: T1, Glucagon-like peptide 1 receptor (Homo sapiens, UniProt P43220); test: Agonist activity at human GLP1R expressed in HEK293 cells at 30 nM after 5 hrs by luciferase reporter gene assay; type: cell-based
[3] = target: T1, Glucagon-like peptide 1 receptor; test: Agonist activity at human GLP1R expressed in HEK293 cells after 5 hrs by luciferase reporter gene assay; type: cell-based
[4] = target: T2, Glucagon-like peptide 2 receptor (Homo sapiens, UniProt O95838); test: Agonist activity at human GLP2R expressed in HEK293 cells after 5 hrs by luciferase reporter gene assay; type: cell-based
T2 sequence (O95838 whole entry): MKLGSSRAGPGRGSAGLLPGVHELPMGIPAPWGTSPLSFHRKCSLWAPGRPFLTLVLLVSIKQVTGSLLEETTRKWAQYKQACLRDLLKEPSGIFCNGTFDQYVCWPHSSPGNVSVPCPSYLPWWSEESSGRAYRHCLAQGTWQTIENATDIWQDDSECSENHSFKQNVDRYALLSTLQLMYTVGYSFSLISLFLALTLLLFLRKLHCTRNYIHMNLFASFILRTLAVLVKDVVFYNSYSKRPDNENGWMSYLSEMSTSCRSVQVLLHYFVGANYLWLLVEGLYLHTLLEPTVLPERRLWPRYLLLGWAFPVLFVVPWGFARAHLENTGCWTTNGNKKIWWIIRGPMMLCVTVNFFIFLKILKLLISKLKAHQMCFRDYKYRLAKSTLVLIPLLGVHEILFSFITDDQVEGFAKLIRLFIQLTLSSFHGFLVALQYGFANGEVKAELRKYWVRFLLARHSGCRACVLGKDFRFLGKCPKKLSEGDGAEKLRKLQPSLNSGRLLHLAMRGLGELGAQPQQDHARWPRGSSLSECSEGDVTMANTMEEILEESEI

[5] = target: Glucagon receptor (Homo sapiens) (UniProt P47871); test: Agonist activity at human GCGR expressed in HEK293 cells after 5 hrs by luciferase reporter gene assay; type: cell-based
[6] = Systemic clearance in Sprague-Dawley rat at 0.2 mg/kg, iv through cassette dosing measured up to 300 mins by LC/MS/MS analysis; type: ADME, organism-based; settings: in vivo

Chain of Glucagon receptor (Homo sapiens) (P47871 whole entry): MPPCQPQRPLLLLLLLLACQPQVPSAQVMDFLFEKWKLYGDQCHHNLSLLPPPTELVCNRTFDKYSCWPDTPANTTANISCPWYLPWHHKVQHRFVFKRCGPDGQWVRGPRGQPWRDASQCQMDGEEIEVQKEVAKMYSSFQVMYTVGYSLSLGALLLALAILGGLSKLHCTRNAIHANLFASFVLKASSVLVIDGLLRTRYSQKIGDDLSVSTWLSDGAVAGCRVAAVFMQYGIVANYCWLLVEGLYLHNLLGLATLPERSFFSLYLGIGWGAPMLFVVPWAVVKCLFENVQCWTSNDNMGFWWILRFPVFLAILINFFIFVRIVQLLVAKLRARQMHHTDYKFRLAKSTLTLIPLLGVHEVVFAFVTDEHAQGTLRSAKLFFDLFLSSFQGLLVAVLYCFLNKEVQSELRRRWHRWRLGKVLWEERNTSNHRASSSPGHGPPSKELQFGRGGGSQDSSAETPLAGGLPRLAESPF
T1 sequence (P43220 whole entry): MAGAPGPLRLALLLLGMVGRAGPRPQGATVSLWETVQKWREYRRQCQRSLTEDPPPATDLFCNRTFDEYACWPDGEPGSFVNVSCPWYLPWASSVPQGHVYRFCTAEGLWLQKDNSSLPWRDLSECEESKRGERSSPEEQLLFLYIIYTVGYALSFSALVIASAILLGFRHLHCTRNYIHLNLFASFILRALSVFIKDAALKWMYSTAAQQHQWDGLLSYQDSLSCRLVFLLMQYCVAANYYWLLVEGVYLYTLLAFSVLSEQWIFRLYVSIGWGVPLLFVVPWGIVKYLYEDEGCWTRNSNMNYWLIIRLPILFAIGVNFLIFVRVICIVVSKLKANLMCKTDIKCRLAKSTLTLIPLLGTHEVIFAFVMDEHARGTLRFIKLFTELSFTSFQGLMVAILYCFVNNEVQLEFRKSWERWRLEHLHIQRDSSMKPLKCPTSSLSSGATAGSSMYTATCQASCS

Efficacy [2] [%] | EC50 ([3]; hek293) [nM] | EC50 ([4]; hek293) [nM] | Activity [5] | clearance [6] [mL/min/kg] | EC50 [3] [nM] | EC50 [4] [nM] | Compound | Ratio EC50 [1]
89 | 8.8 | 0.16 | inactive | 0.55 |  |  | CCCCC(NC(=O)[C@@H](CCC(=O)O)NC(=O)[C@@H](CC(=O)O)NC(=O)[C@@H](CO)NC(=O)[C@@H](Cc1ccccc1)NC(=O)[C@@H](CO)NC(=O)CNC(=O)[C@@H](CC(=O)O)NC(=O)CNC(=O)[C@@H](N)Cc1cnc[nH]1)C(=O)NC(Cc1ccc(Cl)cc1)C(=O)N[C@H](C(=O)N[C@H](C(=O)N[C@@H](CC(C)C)C(=O)N[C@@H](CC(=O)O)C(=O)N[C@@H](CC(N)=O)C(=O)N[C@@H](CC(C)C)C(=O)N[C@@H](C)C(=O)N[C@@H](C)C(=O)N[C@@H](CCCNC(=N)N)C(=O)N[C@@H](CC(=O)O)C(=O)N[C@@H](Cc1ccccc1)C(=O)N[C@H](C(=O)N[C@@H](CC(N)=O)C(=O)N[C@H](Cc1c[nH]c2ccccc12)C(=O)N[C@H](CC(C)C)C(=O)N[C@@H](C(=O)N[C@H](CCC(N)=O)C(=O)N[C@@H](C(=O)N[C@@H](CCCCN)C(N)=O)[C@H](C)O)[C@@H](C)CC)[C@H](C)CC)[C@H](C)CC)[C@@H](C)O (stereo partly drawn) | 55
86 |  |  | inactive |  |  |  | CCCCC(NC(=O)[C@H](CCC(=O)O)NC(=O)[C@H](CC(=O)O)NC(=O)[C@H](CO)NC(=O)[C@H](Cc1ccccc1)NC(=O)[C@H](CO)NC(=O)CNC(=O)[C@H](CC(=O)O)NC(=O)CNC(=O)[C@@H](N)Cc1cnc[nH]1)C(=O)N[C@H](Cc1ccc(Cl)cc1)C(=O)N[C@H](C(=O)N[C@H](C(=O)N[C@@H](CC(C)C)C(=O)N[C@@H](CC(=O)O)C(=O)N[C@@H](CC(N)=O)C(=O)N[C@@H](CC(C)C)C(=O)N[C@@H](C)C(=O)N[C@@H](C)C(=O)N[C@@H](CCCNC(=N)N)C(=O)N[C@@H](CC(=O)O)C(=O)N[C@@H](Cc1ccccc1)C(=O)N[C@H](C(=O)N[C@@H](CC(N)=O)C(=O)N[C@@H](Cc1c[nH]c2ccccc12)C(=O)N[C@@H](CC(C)C)C(=O)N[C@H](C(=O)N[C@@H](CCC(N)=O)C(=O)N[C@H](C(=O)N[C@@H](CCCCN)C(N)=O)[C@@H](C)O)[C@@H](C)CC)[C@@H](C)CC)[C@@H](C)CC)[C@@H](C)O (stereo partly drawn) | 660
64 |  |  | inactive |  |  |  | CCCCC(NC(=O)[C@H](CCC(=O)O)NC(=O)[C@H](CC(=O)O)NC(=O)[C@H](CO)NC(=O)[C@H](Cc1ccccc1)NC(=O)[C@H](CO)NC(=O)CNC(=O)[C@H](CC(=O)O)NC(=O)CNC(=O)[C@@H](N)Cc1cnc[nH]1)C(=O)N[C@H](Cc1ccccc1)C(=O)N[C@H](C(=O)N[C@H](C(=O)N[C@@H](CC(C)C)C(=O)N[C@@H](CC(=O)O)C(=O)N[C@@H](CC(N)=O)C(=O)N[C@@H](CC(C)C)C(=O)N[C@@H](C)C(=O)N[C@@H](C)C(=O)N[C@@H](CCCNC(=N)N)C(=O)N[C@@H](CC(=O)O)C(=O)N[C@@H](Cc1ccccc1)C(=O)N[C@H](C(=O)N[C@@H](CC(N)=O)C(=O)N[C@@H](Cc1c[nH]c2ccccc12)C(=O)N[C@@H](CC(C)C)C(=O)N[C@H](C(=O)N[C@@H](CCC(N)=O)C(=O)N[C@H](C(=O)N[C@@H](CCCCN)C(N)=O)[C@@H](C)O)[C@@H](C)CC)[C@@H](C)CC)[C@@H](C)CC)[C@@H](C)O (stereo partly drawn) | 1300

The next lines start with the compound.

Compound | Efficacy [2] [%] | EC50 ([3]; hek293) [nM] | EC50 ([4]; hek293) [nM] | Activity [5] | clearance [6] [mL/min/kg] | EC50 [3] [nM] | EC50 [4] [nM] | Ratio EC50 [1]
CCCCC(NC(=O)[C@H](CCC(=O)O)NC(=O)[C@H](CC(=O)O)NC(=O)[C@H](CO)NC(=O)[C@H](Cc1ccccc1)NC(=O)[C@@H](CO)NC(=O)CNC(=O)[C@@H](CC(=O)O)NC(=O)CNC(=O)[C@@H](N)Cc1cnc[nH]1)C(=O)NC(CCC(C)C)C(=O)N[C@H](C(=O)N[C@H](C(=O)N[C@@H](CC(C)C)C(=O)N[C@@H](CC(=O)O)C(=O)N[C@@H](CC(N)=O)C(=O)N[C@@H](CC(C)C)C(=O)N[C@@H](C)C(=O)N[C@@H](C)C(=O)N[C@@H](CCCNC(=N)N)C(=O)N[C@@H](CC(=O)O)C(=O)N[C@H](Cc1ccccc1)C(=O)N[C@@H](C(=O)N[C@H](CC(N)=O)C(=O)N[C@@H](Cc1c[nH]c2ccccc12)C(=O)N[C@H](CC(C)C)C(=O)N[C@@H](C(=O)N[C@H](CCC(N)=O)C(=O)N[C@@H](C(=O)N[C@@H](CCCCN)C(N)=O)[C@H](C)O)[C@H](C)CC)[C@H](C)CC)[C@H](C)CC)[C@@H](C)O (stereo partly drawn) | 87 |  |  | inactive |  | 10 | 0.29 | 34
CCCCC(NC(=O)[C@H](CCC(=O)O)NC(=O)[C@H](CC(=O)O)NC(=O)[C@H](CO)NC(=O)[C@H](Cc1ccccc1)NC(=O)[C@H](CO)NC(=O)CNC(=O)[C@H](CC(=O)O)NC(=O)CNC(=O)[C@@H](N)Cc1cnc[nH]1)C(=O)N[C@H](C(=O)N[C@H](C(=O)N[C@H](C(=O)N[C@@H](CC(C)C)C(=O)N[C@@H](CC(=O)O)C(=O)N[C@@H](CC(N)=O)C(=O)N[C@@H](CC(C)C)C(=O)N[C@@H](C)C(=O)N[C@@H](C)C(=O)N[C@@H](CCCNC(=N)N)C(=O)N[C@@H](CC(=O)O)C(=O)N[C@@H](Cc1ccccc1)C(=O)N[C@H](C(=O)N[C@@H](CC(N)=O)C(=O)N[C@@H](Cc1c[nH]c2ccccc12)C(=O)N[C@@H](CC(C)C)C(=O)N[C@H](C(=O)N[C@@H](CCC(N)=O)C(=O)N[C@H](C(=O)N[C@@H](CCCCN)C(N)=O)[C@@H](C)O)[C@@H](C)CC)[C@@H](C)CC)[C@@H](C)CC)[C@@H](C)O)[C@@H](C)CC (stereo partly drawn) (H-HGDGSFSDE[ξNle]ITILDNLAARDFINWLIQTK-NH2) | 92 |  |  | inactive | 5.6 | 110 | 0.13 | 840
CCCCC(NC(=O)[C@H](CCC(=O)O)NC(=O)[C@H](CC(=O)O)NC(=O)[C@H](CO)NC(=O)[C@H](Cc1ccccc1)NC(=O)[C@H](CO)NC(=O)CNC(=O)[C@H](CC(=O)O)NC(=O)CNC(=O)[C@@H](N)Cc1cnc[nH]1)C(=O)N[C@H](Cc1ccc(-c2ccccc2)cc1)C(=O)N[C@H](C(=O)N[C@H](C(=O)N[C@@H](CC(C)C)C(=O)N[C@@H](CC(=O)O)C(=O)N[C@@H](CC(N)=O)C(=O)N[C@@H](CC(C)C)C(=O)N[C@@H](C)C(=O)N[C@@H](C)C(=O)N[C@@H](CCCNC(=N)N)C(=O)N[C@@H](CC(=O)O)C(=O)N[C@@H](Cc1ccccc1)C(=O)N[C@H](C(=O)N[C@@H](CC(N)=O)C(=O)N[C@@H](Cc1c[nH]c2ccccc12)C(=O)N[C@@H](CC(C)C)C(=O)N[C@H](C(=O)N[C@@H](CCC(N)=O)C(=O)N[C@H](C(=O)N[C@@H](CCCCN)C(N)=O)[C@@H](C)O)[C@@H](C)CC)[C@@H](C)CC)[C@@H](C)CC)[C@@H](C)O (stereo partly drawn) | 108 |  |  | inactive |  | 39 | 1.9 | 20
CCCCC(NC(=O)[C@H](CCC(=O)O)NC(=O)[C@H](CC(=O)O)NC(=O)[C@H](CO)NC(=O)[C@H](Cc1ccccc1)NC(=O)[C@H](CO)NC(=O)CNC(=O)[C@H](CC(=O)O)NC(=O)CNC(=O)[C@@H](N)Cc1cnc[nH]1)C(=O)N[C@@H](Cc1cnc[nH]1)C(=O)N[C@H](C(=O)N[C@H](C(=O)N[C@@H](CC(C)C)C(=O)N[C@@H](CC(=O)O)C(=O)N[C@@H](CC(N)=O)C(=O)N[C@@H](CC(C)C)C(=O)N[C@@H](C)C(=O)N[C@@H](C)C(=O)N[C@@H](CCCNC(=N)N)C(=O)N[C@@H](CC(=O)O)C(=O)N[C@@H](Cc1ccccc1)C(=O)N[C@H](C(=O)N[C@@H](CC(N)=O)C(=O)N[C@@H](Cc1c[nH]c2ccccc12)C(=O)N[C@@H](CC(C)C)C(=O)N[C@H](C(=O)N[C@@H](CCC(N)=O)C(=O)N[C@H](C(=O)N[C@@H](CCCCN)C(N)=O)[C@@H](C)O)[C@@H](C)CC)[C@@H](C)CC)[C@@H](C)CC)[C@@H](C)O (stereo partly drawn) | 35 |  |  | inactive |  | 300 | 0.44 | 680
CCCCC(NC(=O)[C@@H](CCC(=O)O)NC(=O)[C@@H](CC(=O)O)NC(=O)[C@@H](CO)NC(=O)[C@@H](Cc1ccccc1)NC(=O)[C@@H](CO)NC(=O)CNC(=O)[C@@H](CC(=O)O)NC(=O)CNC(=O)[C@@H](N)Cc1cnc[nH]1)C(=O)NC(Cc1ccc(-c2ccccc2)cc1)C(=O)N[C@@H](C(=O)N[C@@H](C(=O)N[C@H](CC(C)C)C(=O)N[C@H](CC(=O)O)C(=O)N[C@H](CC(N)=O)C(=O)N[C@H](CC(C)C)C(=O)N[C@H](C)C(=O)N[C@H](C)C(=O)N[C@H](CCCNC(=N)N)C(=O)N[C@H](CC(=O)O)C(=O)N[C@H](Cc1ccccc1)C(=O)N[C@@H](C(=O)N[C@H](CC(N)=O)C(=O)N[C@@H](Cc1c[nH]c2ccccc12)C(=O)N[C@@H](CC(C)C)C(=O)N[C@H](C(=O)N[C@@H](CCC(N)=O)C(=O)N[C@H](C(=O)N[C@H](CCCCN)C(N)=O)[C@@H](C)O)[C@H](C)CC)[C@@H](C)CC)[C@H](C)CC)[C@H](C)O (stereo partly drawn) | 83 |  |  | inactive |  | 21 | 0.18 | 110
